Results from publication PMC5346723, “Delivery of a peptide-drug conjugate targeting the blood brain barrier improved the efficacy of paclitaxel against glioma” (Oncotarget, 2016).
Peptide text beside a SMILES is read from it. * marks the point of attachment. Biotin = O=C1N[C@H]2[C@H](CS[C@H]2CCCCC(=O)*)N1

Tests used:
[1] = test system: U87 glioblastoma cells; assay: MTT assay; assay type: cell-based, human; conditions: 1 × 10^5 cells/100 μl/well, 96-well, 37°C, sample concentration for the table not stated (0.1-2.5 mg/mL tested), absorbance 570 nm
Method: The cytotoxicity of ANG, ANG-TAT, ANG-PTX and ANG-TAT-PTX were determined using the 3-[4,5-dimethylthiazol-2-yl]-2,5-diphenyl tetrazolium bromide (MTT) assay. Human U87 glioblastoma cell (1×10^5 cells/100 μl per well) were cultured in 96-well plates at 37°C in 5% CO2. Aqueous solutions of the samples were dissolved in culture medium at final concentrations of 0.1, 0.5, 1, and 2.5 mg/mL. After incubation for 24 and 48 hours, the MTT solution (in 2 mg/mL phosphate-buffered saline) was added, the plates were incubated for 4 hours, and the cells were lysed with 50% N, N-dimethylformamide containing 20% sodium dodecyl sulfate (pH 4.5). Absorbance at 570 nm was measured for each well using a SpectraMax M5 (Molecular Devices, Sunnyvale, CA USA). The absorbance of control cells was taken as 100% viability, and the values of the treated cells were calculated as a percentage of the control.

[2] = test system: U87 glioblastoma brain tumor tissue; assay: Brain extraction of biotin labelled peptides after tail vein injection in mice with intracerebral U87 tumors; assay type: in vivo, CD-1 nude mice; conditions: 50 μg/kg, brain removed 15 min after injection, tumor implanted right hemisphere, biotin quantitative kit, P<0.05
Method: Biotin ANG and biotin ANG-TAT (50 μg/kg body weight) were injected into the tail vein of CD-1 nude mice carrying intracerebral implants of U87 glioblastoma cells. Fifteen minutes after injection the mice were killed, and the brains were surgically removed. The brain tissues were dissected and maintained in cold saline containing protease inhibitors until processing. To compare normal and tumor brain tissue, the right hemisphere (implanted hemisphere) was compared with the left hemisphere (non-implanted hemisphere). To extract biotin ANG and biotin ANG-TAT, tissues were mechanically homogenized in homogenization buffer (0.1 M Tris–HCl, pH 5.0, 50 mM sucrose, 0.003% Tween-80, and protease inhibitor cocktail) on ice. Acetonitrile (ACN) 100% was added to a final concentration of 65% (v/v). The mixture was stirred for 10 min in a cold room and then centrifuged at 3000 r.p.m. for 5 min. Acetonitrile supernatants were collected and dried in a rotative evaporator and finally freeze-dried. The concentration of biotin ANG and biotin ANG-TAT in the samples was determined using biotin quantitative kit from Elabsciences, Inc (Shanghai, China).
The U87 cell line was used to assess peptide uptake in an animal model of glioma. Cells suspension were prepared at a final concentration of 1×10^4 cells/ml in PBS and kept on ice until injection. […]

SMILES | MTT assay of ANG-TAT-PTX in tumor cells, 24h ([1]; 5% CO2, 24 h incubation) | MTT assay of ANG-TAT-PTX in tumor cells, 48h ([1]; 5% CO2, 48 h incubation) | Amount extracted from tumor tissue relative to biotin ANG [2]
CC(=O)O[C@H]1C(=O)[C@@]2(C)[C@H]([C@H](OC(=O)c3ccccc3)[C@]3(O)C[C@H](OC(=O)[C@H](O)[C@@H](NC(=O)c4ccccc4)c4ccccc4)C(C)=C1C3(C)C)[C@]1(OC(C)=O)CO[C@@H]1C[C@@H]2O [Free PTX, Paclitaxel] | 20.53±2.21 | 42.36±2.35 | –
C[C@@H](O)[C@H](N)C(=O)N[C@@H](Cc1ccccc1)C(=O)N[C@@H](Cc1ccccc1)C(=O)N[C@@H](Cc1ccc(O)cc1)C(=O)NCC(=O)NCC(=O)N[C@@H](CO)C(=O)N[C@@H](CCCNC(=N)N)C(=O)NCC(=O)N[C@@H](CCCCN)C(=O)N[C@@H](CCCNC(=N)N)C(=O)N[C@@H](CC(N)=O)C(=O)N[C@@H](CC(N)=O)C(=O)N[C@@H](Cc1ccccc1)C(=O)N[C@@H](CCCCNC(=O)CCCC[C@@H]1SC[C@@H]2NC(=O)N[C@@H]21)C(=O)N[C@H](C(=O)N[C@@H](CCC(=O)O)C(=O)N[C@@H](CCC(=O)O)C(=O)N[C@@H](Cc1ccc(O)cc1)C(=O)NCC(=O)N[C@@H](CCCNC(=N)N)C(=O)N[C@@H](CCCCN)C(=O)N[C@@H](CCCCN)C(=O)N[C@@H](CCCNC(=N)N)C(=O)N[C@@H](CCCNC(=N)N)C(=O)N[C@@H](CCC(N)=O)C(=O)N[C@@H](CCCNC(=N)N)C(=O)N[C@@H](CCCNC(=N)N)C(=O)N[C@@H](CCCNC(=N)N)C(=O)N1CCC[C@H]1C(=O)N1CCC[C@H]1C(=O)N[C@@H](CCC(N)=O)C(=O)N[C@@H](CCC(N)=O)C(=O)O)[C@@H](C)O [biotin ANG-TAT] (H-TFFYGGSRGKRNNFK(Biotin)TEEYGRKKRRQRRRPPQQ-OH) | – | – | 1.8 fold
